According to ChEMBL document CHEMBL1201862, “PubChem BioAssay data set” (2004):
Active and inactive are the calls of the source.

What was measured:
[1] = target: T1, Neuropeptides B/W receptor type 1 (Homo sapiens, UniProt P48145); assay: human NPBW1 receptor blockade, IC50 – cell-based, fluorescence, dose response, set 5, late-stage follow-up (AID 588566); format: functional
T1 sequence (P48145 whole entry): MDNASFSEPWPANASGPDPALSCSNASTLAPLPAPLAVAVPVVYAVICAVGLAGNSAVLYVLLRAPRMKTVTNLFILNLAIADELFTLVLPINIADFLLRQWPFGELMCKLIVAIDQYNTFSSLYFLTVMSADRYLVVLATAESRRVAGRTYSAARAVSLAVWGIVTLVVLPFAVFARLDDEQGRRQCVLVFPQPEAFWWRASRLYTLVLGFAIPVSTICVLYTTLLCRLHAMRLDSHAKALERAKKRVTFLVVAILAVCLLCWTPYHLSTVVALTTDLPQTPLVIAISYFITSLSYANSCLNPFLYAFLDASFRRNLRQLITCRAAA

[2] = target: T2, Melanin-concentrating hormone receptor 1 (Homo sapiens, UniProt Q99705); assay: Late-stage fluorescence-based counterscreen for antagonists of the G-protein coupled receptor 7 (GPR7): cell-based dose response assay to identify antagonists of the melanin-concentrating hormone receptor 1 (MCHR1) Set 5.; format: functional
T2 sequence (Q99705 whole entry): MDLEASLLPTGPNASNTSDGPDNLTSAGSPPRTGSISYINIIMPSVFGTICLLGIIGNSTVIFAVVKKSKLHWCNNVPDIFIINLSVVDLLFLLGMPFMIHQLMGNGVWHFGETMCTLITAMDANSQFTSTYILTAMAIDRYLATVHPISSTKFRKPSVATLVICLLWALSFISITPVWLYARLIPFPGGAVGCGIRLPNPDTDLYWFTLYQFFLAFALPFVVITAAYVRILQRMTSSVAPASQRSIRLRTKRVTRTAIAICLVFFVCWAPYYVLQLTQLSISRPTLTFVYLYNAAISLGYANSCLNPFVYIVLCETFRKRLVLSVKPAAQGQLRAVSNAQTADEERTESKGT

[3] = target: T2, Melanin-concentrating hormone receptor 1; assay: Late-stage fluorescence-based counterscreen for antagonists of the G-protein coupled receptor 7 (GPR7): cell-based dose response assay to identify antagonists of the melanin-concentrating hormone receptor 1 (MCHR1) Set 6.; format: functional
[4] = target: T1, Neuropeptides B/W receptor type 1; assay: human NPBW1 receptor blockade, IC50 – cell-based, fluorescence, dose response, set 6, late-stage follow-up (AID 588583); format: functional
[5] = target: DNA dC->dU-editing enzyme APOBEC-3G (Homo sapiens, UniProt Q9HC16); assay: inhibition of APOBEC3G ssDNA deamination – biochemical, fluorescence, single-stranded DNA substrate, SAR follow-up (AID 602136); format: functional; conditions: read-out: IC50_Mean
Chain of DNA dC->dU-editing enzyme APOBEC-3G (Q9HC16 whole entry): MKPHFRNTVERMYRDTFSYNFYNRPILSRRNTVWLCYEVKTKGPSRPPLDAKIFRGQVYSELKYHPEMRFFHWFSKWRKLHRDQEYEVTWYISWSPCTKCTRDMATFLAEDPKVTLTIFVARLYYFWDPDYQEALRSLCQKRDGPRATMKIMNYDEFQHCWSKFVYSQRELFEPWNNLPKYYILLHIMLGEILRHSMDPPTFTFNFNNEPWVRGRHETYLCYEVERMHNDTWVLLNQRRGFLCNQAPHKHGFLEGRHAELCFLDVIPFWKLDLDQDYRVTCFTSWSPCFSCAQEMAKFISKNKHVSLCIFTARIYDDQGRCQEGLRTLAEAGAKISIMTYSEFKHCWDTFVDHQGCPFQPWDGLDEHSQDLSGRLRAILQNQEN

[6] = target: DNA dC->dU-editing enzyme APOBEC-3A (Homo sapiens, UniProt P31941); assay: SAR analysis of small molecule inhibitors of APOBEC3A DNA Deaminase via a fluorescence-based single-stranded DNA deaminase assay.; format: functional; conditions: read-out: IC50_Mean
Chain of DNA dC->dU-editing enzyme APOBEC-3A (P31941 whole entry): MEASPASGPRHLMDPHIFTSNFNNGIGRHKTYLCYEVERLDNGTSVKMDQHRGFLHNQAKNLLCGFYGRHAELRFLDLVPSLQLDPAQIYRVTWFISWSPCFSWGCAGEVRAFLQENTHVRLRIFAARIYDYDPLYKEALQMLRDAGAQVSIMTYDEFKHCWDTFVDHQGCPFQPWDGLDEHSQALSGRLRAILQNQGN

[7] = target: T3, High affinity choline transporter 1 (Homo sapiens, UniProt Q9GZV3); assay: human choline transporter blockers, potency – cell-based, 5-point CRC, membrane potential dye, dose response (AID 504840); format: functional
T3 sequence (Q9GZV3 whole entry): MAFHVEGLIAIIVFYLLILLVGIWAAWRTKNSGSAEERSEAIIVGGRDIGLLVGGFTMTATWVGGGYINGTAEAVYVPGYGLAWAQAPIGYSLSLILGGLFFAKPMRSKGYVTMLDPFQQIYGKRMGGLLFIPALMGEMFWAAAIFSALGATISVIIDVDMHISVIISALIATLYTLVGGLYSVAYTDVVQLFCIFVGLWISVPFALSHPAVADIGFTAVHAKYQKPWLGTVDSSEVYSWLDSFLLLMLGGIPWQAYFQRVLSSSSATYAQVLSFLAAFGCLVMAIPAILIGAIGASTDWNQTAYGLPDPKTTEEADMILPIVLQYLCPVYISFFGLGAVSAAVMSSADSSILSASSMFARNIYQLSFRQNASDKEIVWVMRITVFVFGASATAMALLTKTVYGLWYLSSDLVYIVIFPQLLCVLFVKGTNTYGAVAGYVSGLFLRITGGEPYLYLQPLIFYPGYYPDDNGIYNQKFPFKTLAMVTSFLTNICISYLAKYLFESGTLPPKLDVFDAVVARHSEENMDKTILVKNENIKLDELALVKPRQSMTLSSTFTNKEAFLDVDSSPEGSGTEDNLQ

[8] = target: T3, High affinity choline transporter 1; assay: human choline transporter blockers, potency – cell-based, 10-point CRC, membrane potential dye, dose response (AID 588401); format: functional;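 further: membrane potential dye fluorescence of choline-evoked depolarization via CHT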
[9] = luciferase reporter signal suppression in cells – H4 neuroglioma cells, luminescence, dose response (AID 1990); format: functional, cell-based
[10] = Luminescence Cell-Based Dose Response HTS to Identify Inhibitors of 5'UTR Stem-Loop Driven Prion Protein mRNA Translation in H4 Neuroglioblastoma Cells. [Related pubchem assays: 1827 (Project Summary), 1813 (Primary HTS)]; format: functional
[11] = alpha-synuclein stem-loop luciferase translation blockers – H4 neuroglioma cells, luminescence, confirmation (AID 1988); format: functional, cell-based
[12] = target: T4, Aryl hydrocarbon receptor (Homo sapiens, UniProt P35869); assay: Luminescence-based cell-based high throughput dose response assay for activators of the Aryl Hydrocarbon Receptor (AHR). [Related pubchem assays: 2796 (Primary screen (AHR activators in singlicate)), 2845 (Confirmation screen (AHR activators in triplicate)), 434939 (Counterscreen (PXR activators in triplicate)), 2804 (Summary (AHR activators))]; format: ADME
T4 sequence (P35869 whole entry): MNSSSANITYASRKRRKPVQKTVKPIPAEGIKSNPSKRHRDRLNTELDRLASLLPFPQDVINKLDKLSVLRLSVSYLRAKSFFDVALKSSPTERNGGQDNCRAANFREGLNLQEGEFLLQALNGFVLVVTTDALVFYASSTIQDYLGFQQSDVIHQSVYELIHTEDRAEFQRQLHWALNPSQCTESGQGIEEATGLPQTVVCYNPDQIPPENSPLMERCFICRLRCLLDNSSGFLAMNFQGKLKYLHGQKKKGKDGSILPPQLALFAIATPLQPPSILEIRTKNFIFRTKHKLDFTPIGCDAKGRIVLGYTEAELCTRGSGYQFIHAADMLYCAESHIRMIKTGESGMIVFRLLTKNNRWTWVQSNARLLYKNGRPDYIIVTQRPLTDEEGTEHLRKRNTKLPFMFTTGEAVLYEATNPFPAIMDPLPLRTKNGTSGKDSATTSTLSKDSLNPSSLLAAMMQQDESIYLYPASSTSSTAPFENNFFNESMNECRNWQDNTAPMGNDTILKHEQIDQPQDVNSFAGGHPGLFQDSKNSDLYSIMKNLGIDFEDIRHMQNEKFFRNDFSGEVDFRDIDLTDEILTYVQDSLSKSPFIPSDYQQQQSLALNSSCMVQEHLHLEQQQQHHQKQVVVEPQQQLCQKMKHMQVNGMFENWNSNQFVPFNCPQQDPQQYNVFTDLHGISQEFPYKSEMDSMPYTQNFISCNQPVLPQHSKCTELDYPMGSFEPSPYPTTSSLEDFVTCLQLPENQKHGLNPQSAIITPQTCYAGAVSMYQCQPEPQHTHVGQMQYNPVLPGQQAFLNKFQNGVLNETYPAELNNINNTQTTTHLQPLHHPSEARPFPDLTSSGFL

[13] = target: Glycogen synthase kinase-3 alpha (Homo sapiens, UniProt P49840); assay: Inhibition of Human GSK-3 alpha Activity Measured in Biochemical System Using Microfluidics - 2063-06_Inhibitor_Dose_DryPowder_Activity_Set2. [Related pubchem assays (depositor defined):AID2709]
Chain of Glycogen synthase kinase-3 alpha (P49840 whole entry): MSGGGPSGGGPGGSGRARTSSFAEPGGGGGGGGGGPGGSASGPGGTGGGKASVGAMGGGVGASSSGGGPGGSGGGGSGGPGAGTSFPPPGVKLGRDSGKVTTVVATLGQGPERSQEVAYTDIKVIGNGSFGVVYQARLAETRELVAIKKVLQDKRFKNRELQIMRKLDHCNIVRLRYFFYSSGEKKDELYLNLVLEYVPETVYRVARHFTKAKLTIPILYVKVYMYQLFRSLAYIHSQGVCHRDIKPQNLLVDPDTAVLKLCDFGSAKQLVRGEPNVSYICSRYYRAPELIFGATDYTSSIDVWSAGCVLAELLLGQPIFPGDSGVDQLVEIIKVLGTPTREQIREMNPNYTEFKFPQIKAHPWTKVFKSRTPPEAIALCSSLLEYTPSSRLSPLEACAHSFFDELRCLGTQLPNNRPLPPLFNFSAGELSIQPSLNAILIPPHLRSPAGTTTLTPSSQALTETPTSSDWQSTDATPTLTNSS

[14] = target: Glycogen synthase kinase-3 beta (Homo sapiens, UniProt P49841); assay: Inhibition of Human GSK-3 beta Activity Measured in Biochemical System Using Microfluidics - 2063-05_Inhibitor_Dose_DryPowder_Activity_Set2. [Related pubchem assays (depositor defined):AID2709]
Chain of Glycogen synthase kinase-3 beta (P49841 whole entry): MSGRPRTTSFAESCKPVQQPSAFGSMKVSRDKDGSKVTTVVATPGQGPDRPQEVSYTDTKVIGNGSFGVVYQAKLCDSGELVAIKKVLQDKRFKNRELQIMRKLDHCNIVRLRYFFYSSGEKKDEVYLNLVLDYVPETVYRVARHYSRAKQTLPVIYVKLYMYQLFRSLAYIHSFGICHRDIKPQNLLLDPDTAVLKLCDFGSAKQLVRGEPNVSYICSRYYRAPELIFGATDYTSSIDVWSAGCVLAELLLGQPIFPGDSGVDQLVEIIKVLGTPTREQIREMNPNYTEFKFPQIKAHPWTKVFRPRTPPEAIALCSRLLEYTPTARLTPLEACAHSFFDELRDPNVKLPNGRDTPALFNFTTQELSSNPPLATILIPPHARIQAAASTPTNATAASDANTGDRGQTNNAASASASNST

[15] = target: Cyclin-dependent kinase 5/CDK5 activator 1 (Homo sapiens, UniProt Q00535); assay: human CDK5 activity blockade – biochemical, microfluidic mobility shift, dry powder, selectivity assay for GSK-3 alpha inhibitor project, dose response (AID 588430)
Chain of Cyclin-dependent kinase 5/CDK5 activator 1 (Q00535 whole entry): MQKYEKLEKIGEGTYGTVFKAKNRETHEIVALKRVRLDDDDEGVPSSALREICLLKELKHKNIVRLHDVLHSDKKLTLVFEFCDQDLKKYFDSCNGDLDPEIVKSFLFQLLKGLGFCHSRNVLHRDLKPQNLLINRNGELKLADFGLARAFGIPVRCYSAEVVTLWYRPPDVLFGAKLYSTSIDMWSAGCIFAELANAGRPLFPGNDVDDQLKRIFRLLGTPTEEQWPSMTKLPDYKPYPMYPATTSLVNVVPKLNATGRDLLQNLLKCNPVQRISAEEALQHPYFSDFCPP
Chain of Cyclin-dependent kinase 5/CDK5 activator 1 (Q15078 whole entry, further chain): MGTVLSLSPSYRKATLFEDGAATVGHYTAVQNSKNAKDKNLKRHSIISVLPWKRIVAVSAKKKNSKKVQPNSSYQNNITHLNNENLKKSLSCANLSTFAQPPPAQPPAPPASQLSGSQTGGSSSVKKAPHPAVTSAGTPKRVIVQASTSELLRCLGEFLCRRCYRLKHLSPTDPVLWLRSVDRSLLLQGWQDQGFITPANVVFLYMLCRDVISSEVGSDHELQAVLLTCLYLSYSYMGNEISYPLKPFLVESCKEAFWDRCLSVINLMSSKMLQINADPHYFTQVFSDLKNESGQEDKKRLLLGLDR

[16] = M. tuberculosis growth inhibition in 7H9, dose response, 7H9 media, purified and synthesized samples, set 3 (AID 504646); format: functional
[17] = A High Throughput Confirmatory Assay used to Identify Novel Compounds that Inhibit Mycobacterium Tuberculosis in the absence of Glycerol using Purified and Synthesized Compounds (3).; format: functional

COc1ccc(Oc2c(Cl)cnn(Cc3ccc4c(c3)C(=O)c3ccccc3C4=O)c2=O)cc1
IC50 [1]: > 20 µM (inactive) | IC50 [2]: > 20 µM (inactive)

Cc1ccc(C)c(C(C#N)c2c(Cl)cnn(Cc3cccc4ccccc34)c2=O)c1 (configuration not stated)
IC50 [3]: 3.14 µM (active) | IC50 [4]: 3.14 µM (active)

COc1ccc2c(Cl)c(-c3nnc4n3CCC4)sc2c1
IC50 [5]: > 99 µM (inactive) | IC50 [6]: > 99 µM (inactive)

C=CCc1ccc(O)c(-c2cc(CC=C)ccc2O)c1 [MAGNOLOL]
IC50 [7]: 2.89 µM (active) | IC50 [8]: 1.7 µM (active)

COc1ccccc1Nc1nc(NCCO)nc(N)c1[N+](=O)[O-]
EC50 [9]: 10.9 µM (active) | EC50 [10]: 0.118 µM (active) | EC50 [11]: 11.3 µM (active) | EC50 [12]: 1.2 µM (active) | AC50 [13]: 0.276 µM (active) | AC50 [14]: 0.134 µM (active) | AC50 [15]: 6.14 µM (active)

O=C(c1ccc(CNc2c(N3CCCC3)c(=O)c2=O)cc1)N1CCN(C2CCCCC2)CC1
IC50 [16]: > 25 µM (active) | IC50 [17]: > 25 µM (active)
